Reference: ChEMBL document CHEMBL3885881, “DrugMatrix”

Species: Rattus norvegicus
Test: DrugMatrix - Regimen: Daily Repeat
Format: toxicity, organism-based, Sprague-Dawley
Parameters: regimen Daily Repeat, gender Male, age 6-8 weeks
Conditions: in vivo, iv, vehicle 100 % SALINE; for ALANINE AMINOTRANSFERASE / ALBUMIN / ALKALINE PHOSPHATASE / ASPARTATE AMINOTRANSFERASE / BLOOD UREA NITROGEN / CARBON DIOXIDE / CHLORIDE / CHOLESTEROL / CREATINE PHOSPHOKINASE / CREATININE / GLUCOSE / LACTATE DEHYDROGENASE / LIPASE / PHOSPHORUS / POTASSIUM / SODIUM / TOTAL BILIRUBIN / TOTAL PROTEIN / URIC ACID: tissue Plasma; for ABSOLUTE BASOPHIL / ABSOLUTE EOSINOPHIL / ABSOLUTE LYMPHOCYTE / ABSOLUTE MONOCYTE / ABSOLUTE SEGMENTED NEUTROPHIL / BASOPHIL / EOSINOPHIL / ERYTHROCYTE COUNT / HEMATOCRIT / HEMOGLOBIN / LEUKOCYTE COUNT / LYMPHOCYTE / MEAN CORPUSCULAR HEMOGLOBIN / MEAN CORPUSCULAR HEMOGLOBIN CONCENTRATION / MEAN CORPUSCULAR VOLUME / MONOCYTE / NEUTROPHIL / NUCLEATED RED BLOOD CELLS / PLATELET COUNT: tissue Blood
[1] = 1200 mg/kg, 72 h, dose level M1, time 3 day
[2] = 1200 mg/kg, 120 h, dose level M1, time 5 day
[3] = 1800 mg/kg, 72 h, dose level High, time 3 day

NC(CO)(CO)CO [TROMETHAMINE]
ALANINE AMINOTRANSFERASE [1]: 48.67 u/L | ALBUMIN [1]: 4.2 G/DL | ALKALINE PHOSPHATASE [1]: 396.33 u/L | ASPARTATE AMINOTRANSFERASE [1]: 124 u/L | BLOOD UREA NITROGEN [1]: 14.67 mg/dL | CARBON DIOXIDE [1]: 28 mmol/L | CHLORIDE [1]: 101.67 MEQ/L | CHOLESTEROL [1]: 82 mg/dL | CREATINE PHOSPHOKINASE [1]: 177.33 u/L | CREATININE [1]: 0.16 mg/dL | GLUCOSE [1]: 166.33 mg/dL | LACTATE DEHYDROGENASE [1]: 103 u/L | LIPASE [1]: 8.33 u/L | PHOSPHORUS [1]: 11.1 mg/dL | POTASSIUM [1]: 5.72 MEQ/L | SODIUM [1]: 148.3 MEQ/L | TOTAL BILIRUBIN [1]: 0.1 mg/dL | TOTAL PROTEIN [1]: 6.23 G/DL | URIC ACID [1]: 0.7 mg/dL | ABSOLUTE BASOPHIL [2]: 0 CELLS/uL | ABSOLUTE EOSINOPHIL [2]: 321 CELLS/uL | ABSOLUTE LYMPHOCYTE [2]: 13922 CELLS/uL | ABSOLUTE MONOCYTE [2]: 0 CELLS/uL | ABSOLUTE SEGMENTED NEUTROPHIL [2]: 2357 CELLS/uL | BASOPHIL [2]: 0% | EOSINOPHIL [2]: 2% | ERYTHROCYTE COUNT [2]: 5.71 x10E6/uL | HEMATOCRIT [2]: 35.9% | HEMOGLOBIN [2]: 13.45 G/DL | LEUKOCYTE COUNT [2]: 16.6 x10E3/uL | LYMPHOCYTE [2]: 84% | MEAN CORPUSCULAR HEMOGLOBIN [2]: 23.6 pg | MEAN CORPUSCULAR HEMOGLOBIN CONCENTRATION [2]: 37.45 G/DL | MEAN CORPUSCULAR VOLUME [2]: 62.95 fL | MONOCYTE [2]: 0% | NEUTROPHIL [2]: 14% | NUCLEATED RED BLOOD CELLS [2]: 0 /100WBC | PLATELET COUNT [2]: 1326 x10E3/uL | ALANINE AMINOTRANSFERASE [2]: 51.5 u/L | ALBUMIN [2]: 4.3 G/DL | ALKALINE PHOSPHATASE [2]: 460.5 u/L | ASPARTATE AMINOTRANSFERASE [2]: 147 u/L | BLOOD UREA NITROGEN [2]: 19.5 mg/dL | CARBON DIOXIDE [2]: 26.5 mmol/L | CHLORIDE [2]: 105.5 MEQ/L | CHOLESTEROL [2]: 61.5 mg/dL | CREATINE PHOSPHOKINASE [2]: 173 u/L | CREATININE [2]: 0.2 mg/dL | GLUCOSE [2]: 161 mg/dL | LACTATE DEHYDROGENASE [2]: 131.5 u/L | LIPASE [2]: 7.5 u/L | PHOSPHORUS [2]: 12.6 mg/dL | POTASSIUM [2]: 5.85 MEQ/L | SODIUM [2]: 148.4 MEQ/L | TOTAL BILIRUBIN [2]: 0.15 mg/dL | TOTAL PROTEIN [2]: 6.15 G/DL | URIC ACID [2]: 1.35 mg/dL | ABSOLUTE BASOPHIL [3]: 0 CELLS/uL | ABSOLUTE EOSINOPHIL [3]: 0 CELLS/uL | ABSOLUTE LYMPHOCYTE [3]: 11188.5 CELLS/uL | ABSOLUTE MONOCYTE [3]: 305.5 CELLS/uL | ABSOLUTE SEGMENTED NEUTROPHIL [3]: 3356 CELLS/uL | BASOPHIL [3]: 0% | EOSINOPHIL [3]: 0% | ERYTHROCYTE COUNT [3]: 5.2 x10E6/uL | HEMATOCRIT [3]: 31.8% | HEMOGLOBIN [3]: 12.25 G/DL | LEUKOCYTE COUNT [3]: 14.85 x10E3/uL | LYMPHOCYTE [3]: 75% | MEAN CORPUSCULAR HEMOGLOBIN [3]: 23.65 pg | MEAN CORPUSCULAR HEMOGLOBIN CONCENTRATION [3]: 38.5 G/DL | MEAN CORPUSCULAR VOLUME [3]: 61.4 fL | MONOCYTE [3]: 2% | NEUTROPHIL [3]: 23% | NUCLEATED RED BLOOD CELLS [3]: 0 /100WBC | PLATELET COUNT [3]: 1215.5 x10E3/uL | ALANINE AMINOTRANSFERASE [3]: 64.5 u/L | ALBUMIN [3]: 4.05 G/DL | ALKALINE PHOSPHATASE [3]: 290 u/L | ASPARTATE AMINOTRANSFERASE [3]: 190 u/L | BLOOD UREA NITROGEN [3]: 19.5 mg/dL | CARBON DIOXIDE [3]: 24.5 mmol/L | CHLORIDE [3]: 105.5 MEQ/L | CHOLESTEROL [3]: 107 mg/dL | CREATINE PHOSPHOKINASE [3]: 336.5 u/L | CREATININE [3]: 0.22 mg/dL | GLUCOSE [3]: 149.5 mg/dL | LACTATE DEHYDROGENASE [3]: 446 u/L | LIPASE [3]: 8.5 u/L | PHOSPHORUS [3]: 13.45 mg/dL | POTASSIUM [3]: 6.05 MEQ/L | SODIUM [3]: 147.25 MEQ/L | TOTAL BILIRUBIN [3]: 0.2 mg/dL | TOTAL PROTEIN [3]: 6.15 G/DL | URIC ACID [3]: 0.95 mg/dL
